PubChem BioAssay AID192 (DTP/NCI, 2004)
Toxic doses and inconclusive results are not listed.

System: BDF1 mice, B16 melanoma ip, median survival T/C
Experiment: NCI In Vivo Anticancer Drug Screen. Data for tumor model B16 Melanoma (intraperitoneal) in B6D2F1 (BDF1) mice
Conditions: endpoint: median survival time, higher = longer survival
Procedure, shortened: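 Transplantable tumor model; survival or tumor size measured; reported as T/C, treated over vehicle control.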

[1] = dose: 12.5 mg/kg/injection, schedule: Q01DX009 (ip), vehicle: saline
[2] = dose: 25.0 mg/kg/injection, schedule: Q01DX009 (ip), vehicle: saline
[3] = dose: 50.0 mg/kg/injection, schedule: Q01DX009 (ip), vehicle: saline
[4] = dose: 100.0 mg/kg/injection, schedule: Q01DX009 (ip), vehicle: saline
[5] = dose: 12.5 mg/kg/injection, schedule: Q01DX009 (ip), vehicle: Klucel (hydroxypropylcellulose) (HPC)
[6] = dose: 25.0 mg/kg/injection, schedule: Q01DX009 (ip), vehicle: Klucel (hydroxypropylcellulose) (HPC)
[7] = dose: 50.0 mg/kg/injection, schedule: Q01DX009 (ip), vehicle: Klucel (hydroxypropylcellulose) (HPC)
[8] = dose: 200.0 mg/kg/injection, schedule: Q01DX009 (ip), vehicle: saline
[9] = dose: 6.25 mg/kg/injection, schedule: Q01DX009 (ip), vehicle: saline
[10] = dose: 100.0 mg/kg/injection, schedule: Q01DX009 (ip), vehicle: Klucel (hydroxypropylcellulose) (HPC)
[11] = dose: 200.0 mg/kg/injection, schedule: Q01DX009 (ip), vehicle: Klucel (hydroxypropylcellulose) (HPC)
[12] = dose: 25.0 mg/kg/injection, schedule: Q01DX009 (ip), vehicle: saline with Tween-80
[13] = dose: 50.0 mg/kg/injection, schedule: Q01DX009 (ip), vehicle: saline with Tween-80
[14] = dose: 6.25 mg/kg/injection, schedule: Q01DX009 (ip), vehicle: Klucel (hydroxypropylcellulose) (HPC)
[15] = dose: 6.25 mg/kg/injection, schedule: Q01DX009 (ip), vehicle: water
[16] = dose: 12.5 mg/kg/injection, schedule: Q01DX009 (ip), vehicle: water

c1ccc(CN2CCOC2)cc1
T/C [1]: 115 % of control
T/C [2]: 111 % of control
T/C [3]: 122 % of control
T/C [4]: 111 % of control

Cc1[nH]c(=S)sc1C
T/C [2]: 102 % of control
T/C [3]: 91 % of control
T/C [4]: 102 % of control

O=C(N/N=C/c1ccc(O)cc1O)c1cccnc1
T/C (dose: 25.0 mg/kg/injection, schedule: Q01DX009 (ip), vehicle: olive oil, sesame oil, peanut oil): 86 % of control

C1CNCCN1
T/C (dose: 25.0 mg/kg/injection, schedule: Q01DX009 (ip), vehicle: suspension in saline): 93 % of control
T/C (dose: 50.0 mg/kg/injection, schedule: Q01DX009 (ip), vehicle: suspension in saline): 102 % of control
T/C (dose: 100.0 mg/kg/injection, schedule: Q01DX009 (ip), vehicle: suspension in saline): 106 % of control
T/C (dose: 200.0 mg/kg/injection, schedule: Q01DX009 (ip), vehicle: suspension in saline): 90 % of control

CC(C)/C=C(\C#N)C(=O)O
T/C [5]: 100 % of control
T/C [6]: 100 % of control
T/C [7]: 100 % of control

COc1cc2c(c(OC)c1OC)-c1ccc(OC)c(=O)cc1C(NC(=O)COc1ccccc1)CC2 (stereo not given)
T/C (dose: 1.25 mg/kg/injection, schedule: Q01DX009 (ip), vehicle: Klucel (hydroxypropylcellulose) (HPC)): 175 % of control
T/C (dose: 2.5 mg/kg/injection, schedule: Q01DX009 (ip), vehicle: Klucel (hydroxypropylcellulose) (HPC)): 188 % of control

CN(C)CCCCO
T/C [3]: 96 % of control
T/C [4]: 96 % of control
T/C [8]: 89 % of control

C=C(C)C(=O)OC1C/C(CO)=C\C(O)C/C(C)=C/C2OC(=O)C(=C)C21 (stereo not given)
T/C (dose: 1.25 mg/kg/injection, schedule: Q01DX009 (ip), vehicle: saline + alcohol): 110 % of control
T/C (dose: 2.5 mg/kg/injection, schedule: Q01DX009 (ip), vehicle: saline + alcohol): 90 % of control
T/C (dose: 5.0 mg/kg/injection, schedule: Q01DX009 (ip), vehicle: saline + alcohol): 92 % of control
T/C (dose: 10.0 mg/kg/injection, schedule: Q01DX009 (ip), vehicle: saline + alcohol): 100 % of control
T/C (dose: 20.0 mg/kg/injection, schedule: Q01DX009 (ip), vehicle: saline + alcohol): 91 % of control
T/C (dose: 40.0 mg/kg/injection, schedule: Q01DX009 (ip), vehicle: saline + alcohol): 95 % of control

CCOc1ccc(-c2nc3ccc(-c4nc5ccc(N6CCN(C)CC6)cc5[nH]4)cc3[nH]2)cc1
T/C (dose: 3.12 mg/kg/injection, schedule: Q01DX009 (ip), vehicle: saline): 106 % of control
T/C [9]: 113 % of control
T/C [1]: 112 % of control

Nc1ccc2cc(S(=O)(=O)O)cc(O)c2c1N=Nc1ccc(F)cc1
T/C [4]: 87 % of control

CN(C)CCCC(=O)O
T/C [4]: 98 % of control
T/C [8]: 96 % of control
T/C (dose: 400.0 mg/kg/injection, schedule: Q01DX009 (ip), vehicle: saline): 93 % of control

Brc1nnnn1-c1ccccc1
T/C [10]: 90 % of control
T/C [11]: 93 % of control

CN1CCN(CCCN2c3ccccc3Sc3ccc(Cl)cc32)CC1
T/C (dose: 0.19 mg/kg/injection, schedule: Q01DX009 (ip), vehicle: saline): 111 % of control
T/C (dose: 0.39 mg/kg/injection, schedule: Q01DX009 (ip), vehicle: saline): 97 % of control
T/C (dose: 0.78 mg/kg/injection, schedule: Q01DX009 (ip), vehicle: saline): 100 % of control

Nc1nc(Br)c2ccccc2c1-c1ccc([N+](=O)[O-])cc1
T/C (dose: 200.0 mg/kg/injection, schedule: Q01DX009 (ip), vehicle: saline with Tween-80): 91 % of control

Cc1cc(C)c(CN)cc1CN
T/C [12]: 108 % of control
T/C [13]: 112 % of control

CC(C)=CCC(OC(=O)C=C(C)C)C1=CC(=O)c2c(O)ccc(O)c2C1=O (stereo not given)
T/C (dose: 0.25 mg/kg/injection, schedule: Q01DX009 (ip), vehicle: Klucel (hydroxypropylcellulose) (HPC)): 99 % of control
T/C (dose: 0.5 mg/kg/injection, schedule: Q01DX009 (ip), vehicle: Klucel (hydroxypropylcellulose) (HPC)): 92 % of control

O=C(O)c1ccccc1C(=O)Nc1ccc([N+](=O)[O-])cc1Cl
T/C [7]: 93 % of control
T/C [10]: 100 % of control
T/C [11]: 96 % of control

N#Cc1cccnc1.NCCNCCN.[Br-].[Pt+4]
T/C [1]: 100 % of control
T/C [2]: 94 % of control
T/C [3]: 99 % of control
T/C [4]: 99 % of control
T/C [8]: 89 % of control

O=C(O)C1(C(=O)O)CCCCC1.[NH-]CC1(C[NH-])CCCCC1.[Pt+2]
T/C [9]: 121 % of control
T/C [1]: 122 % of control
T/C [2]: 122 % of control

CC(=O)O[C@@H]1[C@@H](O)[C@H]2O[C@@H]3C=C(C)CC[C@]3(CO)[C@]1(C)[C@@]21CO1
T/C (dose: 1.25 mg/kg/injection, schedule: Q01DX009 (ip), vehicle: saline with Tween-80): 111 % of control
T/C (dose: 2.5 mg/kg/injection, schedule: Q01DX009 (ip), vehicle: saline with Tween-80): 103 % of control
T/C (dose: 5.0 mg/kg/injection, schedule: Q01DX009 (ip), vehicle: saline with Tween-80): 116 % of control
T/C (dose: 10.0 mg/kg/injection, schedule: Q01DX009 (ip), vehicle: saline with Tween-80): 100 % of control

CCN(CC)CCCC(C)NC(C)CCCN(CC)CC (stereo not given)
T/C [14]: 101 % of control
T/C [15]: 98 % of control
T/C [5]: 95 % of control
T/C [16]: 100 % of control

Clc1c(Cl)c(CBr)c(Cl)c(CBr)c1Cl
T/C (dose: 1.56 mg/kg/injection, schedule: Q01DX009 (ip), vehicle: Klucel (hydroxypropylcellulose) (HPC)): 100 % of control
T/C [14]: 105 % of control
T/C [5]: 102 % of control
T/C (dose: 12.5 mg/kg/injection, schedule: Q04DX003 (ip), vehicle: saline with Tween-80): 86 % of control
T/C [12]: 95 % of control
T/C (dose: 25.0 mg/kg/injection, schedule: Q04DX003 (ip), vehicle: saline with Tween-80): 92 % of control
T/C [13]: 97 % of control
T/C (dose: 100.0 mg/kg/injection, schedule: Q01DX009 (ip), vehicle: saline with Tween-80): 95 % of control

CCOC(=O)C(C)C(=O)O (stereo not given)
T/C [1]: 116 % of control
T/C [2]: 101 % of control
T/C [13]: 99 % of control
T/C [3]: 98 % of control

O=C1c2ccccc2C(=O)N1CC[P+](c1ccccc1)(c1ccccc1)c1ccccc1
T/C (dose: 1.56 mg/kg/injection, schedule: Q01DX009 (ip), vehicle: water): 98 % of control
T/C (dose: 3.13 mg/kg/injection, schedule: Q01DX009 (ip), vehicle: water): 100 % of control
T/C [15]: 109 % of control
T/C [16]: 107 % of control

O=c1[nH]c(/C=C/c2ccc(Cl)cc2)nc(O)c1-c1ccc(Cl)cc1
T/C (dose: 75.0 mg/kg/injection, schedule: Q04DX003 (ip), vehicle: Klucel (hydroxypropylcellulose) (HPC)): 110 % of control
T/C (dose: 150.0 mg/kg/injection, schedule: Q04DX003 (ip), vehicle: Klucel (hydroxypropylcellulose) (HPC)): 100 % of control
T/C (dose: 300.0 mg/kg/injection, schedule: Q04DX003 (ip), vehicle: Klucel (hydroxypropylcellulose) (HPC)): 87 % of control

Cc1ccc(C)c(NC(=O)c2ccccc2C(=O)O)c1
T/C [10]: 94 % of control
T/C [11]: 91 % of control

C/C(=N\[N+](C)(C)C)c1ccc2ccccc2c1
T/C [6]: 93 % of control
T/C [7]: 100 % of control

O=S1(=O)OCc2ccccc21
T/C [5]: 115 % of control
T/C [6]: 108 % of control
T/C [7]: 118 % of control

O=c1oc(-c2ccco2)nc2ccccc12
T/C [7]: 112 % of control
T/C [10]: 106 % of control
T/C [11]: 112 % of control

c1ccc2cc3c(ccc4ccccc43)cc2c1
T/C (dose: 50.0 mg/kg/injection, schedule: Q01DX009 (ip), vehicle: distilled water + Tween-80): 109 % of control
T/C (dose: 100.0 mg/kg/injection, schedule: Q01DX009 (ip), vehicle: distilled water + Tween-80): 103 % of control
T/C (dose: 200.0 mg/kg/injection, schedule: Q01DX009 (ip), vehicle: distilled water + Tween-80): 100 % of control

CCC(=O)c1ccc2c(c1)N(CCCN(C)C)c1ccccc1S2
T/C (dose: 3.12 mg/kg/injection, schedule: Q01DX009 (ip), vehicle: saline with Tween-80): 96 % of control
T/C (dose: 6.25 mg/kg/injection, schedule: Q01DX009 (ip), vehicle: saline with Tween-80): 86 % of control
T/C (dose: 12.5 mg/kg/injection, schedule: Q01DX009 (ip), vehicle: saline with Tween-80): 96 % of control

Cc1ccc(C(=O)C(c2ccccc2)C(Cl)c2ccccc2)cc1 (stereo not given)
T/C (dose: 100.0 mg/kg/injection, schedule: Q04DX003 (ip), vehicle: Klucel (hydroxypropylcellulose) (HPC)): 102 % of control
T/C (dose: 200.0 mg/kg/injection, schedule: Q04DX003 (ip), vehicle: Klucel (hydroxypropylcellulose) (HPC)): 103 % of control
T/C (dose: 400.0 mg/kg/injection, schedule: Q04DX003 (ip), vehicle: Klucel (hydroxypropylcellulose) (HPC)): 103 % of control
